Like-named read-outs stand apart in the source and are kept apart here.
Columns and labels:
[1] = biological target: T1, human recombinant CB1R (Homo sapiens, UniProt P21554); experiment: Competition binding assay, displacement of [3H]-CP-55,940 from membranes of HEK-293 cells overexpressing CB1R; settings: for inhibition at 10 µM / inhibition at 25 µM: read-out: % Displacement/ Max. Conc. Tested, hCB1R
T1 construct: purchased Perkin-Elmer, Italy; host or cells: HEK-293 cells (membranes)
Experimental: (§1) The binding affinities (Ki values) of the compounds for human recombinant hCB1R and hCB2R were determined as previously described, using SR144528 as a reference compound [30], and are reported in Table 1.
(§2) Compound affinity for CB1R and CB2R was measured as previously reported. […] Competition curves were performed by displacing [^3H]-CP-55 940 with increasing concentrations of compounds (0.1 nM–10 or 25 μM). […] All compounds were tested following the procedure described by the manufacturer (Perkin-Elmer, Italy). Displacement curves were generated by incubating drugs with [^3H]-CP-55 940 for 90 min at 30 °C. Ki values were calculated by applying the Cheng−Prusoff equation to the IC50 values for the displacement of the bound radioligand by increasing concentrations of the test compound. Data represent the mean values of three independent experiments performed in duplicate and are expressed as the average of Ki (µM) ± standard deviation. Data were analyzed using PRISM.9.3 software (GraphPad Software Inc, San Diego, CA, USA).

[2] = biological target: T2, human CB2R (Homo sapiens, UniProt P34972); experiment: cAMP Hunter assay, effect on NKH-477-induced cAMP levels (agonist mode); format: cell-based; settings: for Effect on NKH-477-induced cAMP levels (functional behavior): CHO-K1 cells overexpressing human CB2R, compound alone
T2 sequence (P34972 whole entry): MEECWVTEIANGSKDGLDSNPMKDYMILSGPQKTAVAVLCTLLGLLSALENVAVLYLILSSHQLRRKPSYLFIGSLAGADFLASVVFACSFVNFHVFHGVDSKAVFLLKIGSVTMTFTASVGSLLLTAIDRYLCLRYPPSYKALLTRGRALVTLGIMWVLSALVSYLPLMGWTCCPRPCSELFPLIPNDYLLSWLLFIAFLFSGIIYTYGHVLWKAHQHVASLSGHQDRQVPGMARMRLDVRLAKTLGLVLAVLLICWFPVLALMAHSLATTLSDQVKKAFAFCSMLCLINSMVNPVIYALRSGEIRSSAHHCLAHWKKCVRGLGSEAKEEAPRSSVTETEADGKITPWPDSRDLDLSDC
Experimental: The above-mentioned compounds were tested for their functional activity.
Gi-coupled cAMP modulation was measured following the manufacturer’s protocol (Eurofins, Fremont, CA, USA), as previously reported. Briefly, CHO-K1 cells overexpressing the human CB2R were plated into a 96-well plate (10,000 cells/well) and incubated overnight at 37 °C, 5% CO2. Media was aspirated and replaced with 30 μL of assay buffer. Cells were incubated for 30 min at 37 °C with 15 μL of 3× dose−response solutions of samples prepared in the presence of a cell assay buffer containing 3× of 25 μM NKH-477 solution to stimulate adenylate cyclase and enhance basal cAMP levels. For those compounds not showing a decrease in cAMP levels, the effect upon receptor activation in the presence of the JWH-133 selective agonist was investigated. Cells were pre-incubated with samples (15 min at 37 °C at 6× the final desired concentration), followed by 30 min incubation with the JWH-133 agonist challenge at the EC80 concentration (EC80 = 4 μM, previously determined in separate experiments) in the presence of NKH-477 to stimulate adenylate cyclase and enhance cAMP levels. Cell lysis and cAMP detection were performed as per the manufacturer’s protocol. Luminescence measurements were performed using a GloMax Multi Detection System (Promega, Italy). Data are reported as the means ± SEM of three independent experiments conducted in triplicate and were normalized considering the NKH-477 stimulus alone as 100% of the response. Data were analyzed using PRISM.9.3 software (GraphPad Software Inc, San Diego, CA, USA).
Figure 7 Concentration-response curves of compounds in the cAMP Hunter assay. Curves show the effect of increasing concentrations of compounds on NKH-477-induced cAMP levels in stable CHO cells expressing the human CB2. Data are reported as the means ± SEM of three independent experiments conducted in triplicate, normalized to the maximal and minimal responses.

[3] = biological target: T2, human CB2R; experiment: Competition binding assay, displacement of [3H]-CP-55,940 from membranes of HEK-293 cells overexpressing CB2R; design: purchased Perkin-Elmer, Italy; host or cells: HEK-293 cells (membranes); settings: for inhibition at 25 µM: max conc. tested 25 µM
Experimental: as §1, §2

[4] = biological target: T2, human CB2R; experiment: cAMP Hunter assay in the presence of JWH-133 agonist challenge (antagonist mode); format: cell-based; settings: for Antagonism of JWH-133-induced inhibition of NKH-477-induced cAMP formation: JWH-133 4 µM (EC80) agonist challenge
Experimental: (§3) Only a small displacement was observed and only at the highest concentration (Figure 8). We reasoned that the discrepancy with the predictions was mainly due to the chemical–physical features of the molecule and that the lack of antagonism was caused by issues related to compound solubility in the buffer used for the assay. Indeed, the maximum concentration of 12b that could be reached in the buffer solution used for the functional assay, measured by UV absorption as well as by HPLC, was 2.3 µM.

[5] = Maximum concentration reached in the functional assay buffer, by UV absorption and HPLC; format: physicochemical; settings: measured by UV absorption and HPLC
Experimental: as §3

[6] = [3H]-CP-55,940 displacement, HEK-293 membranes, 90 min at 30 °C, Cheng-Prusoff, read-out: Ki hCB1R (µM ± S.E.)
[7] = stable CHO cells expressing the human CB2, read-out: EC50, reduction of NKH-477-induced cAMP levels
[8] = [3H]-CP-55,940 displacement, HEK-293 membranes, 90 min at 30 °C, Cheng-Prusoff, read-out: Ki hCB2R (µM ± S.E.)
[9] = max conc. tested 10 µM, read-out: % Displacement/ Max Conc. Tested, hCB2R (converted)
[10] = read-out: % Displacement/ Max Conc. Tested, hCB2R (converted)

T1 sequence (P21554 whole entry): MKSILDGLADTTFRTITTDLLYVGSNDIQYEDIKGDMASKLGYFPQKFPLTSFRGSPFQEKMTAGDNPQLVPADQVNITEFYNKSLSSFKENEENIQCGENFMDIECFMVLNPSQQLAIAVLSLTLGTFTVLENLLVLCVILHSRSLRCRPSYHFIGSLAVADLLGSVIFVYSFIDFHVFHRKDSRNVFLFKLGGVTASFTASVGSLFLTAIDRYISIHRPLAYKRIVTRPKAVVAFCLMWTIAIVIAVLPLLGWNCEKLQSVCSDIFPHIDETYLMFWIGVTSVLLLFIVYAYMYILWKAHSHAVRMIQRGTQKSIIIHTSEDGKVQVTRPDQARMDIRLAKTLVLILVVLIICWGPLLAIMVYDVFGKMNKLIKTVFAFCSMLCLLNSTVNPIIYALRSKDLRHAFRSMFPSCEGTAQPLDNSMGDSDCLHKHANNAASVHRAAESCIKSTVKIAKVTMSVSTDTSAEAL

| SMILES | Ki [1, 6] | inhibition at 10 µM [1] | Effect on NKH-477-induced cAMP levels (functional behavior) [2] | EC50 [2, 7] | melting point | Ki [3, 8] | inhibition at 10 µM [3, 9] | EC80 concentration of agonist challenge ([4]; previously determined in separate experiments) | inhibition at 25 µM [1] | Antagonism of JWH-133-induced inhibition of NKH-477-induced cAMP formation [4] | Maximum concentration that could be reached in the buffer solution used for the functional assay [5] | inhibition at 25 µM [3, 10] | Ki [1] | EC50 [2] | Ki [3] | inhibition at 10 µM ([3]; read-out: % Displacement/ Max Conc. Tested, hCB2R) |
| --- | --- | --- | --- | --- | --- | --- | --- | --- | --- | --- | --- | --- | --- | --- | --- | --- |
| CC(C)(C)N1CC(=NS(=O)(=O)c2cccc(Br)c2)N(CC2CC2)C1=O [Compound 10e, 3-Bromo-N-[1-tert-Butyl-3-cyclopropylmethyl-2-oxoimidazolidin-4-ylidene]benzenesulfonamide] | > 10 µM | 10.8% | typical agonist behavior | 0.264 µM | 114 to 115 °C | 0.34 ± 0.08 µM | 83.5% | – | – | – | – | – | – | – | – | – |
| CCCC(C)(C)c1ccc2c(c1)OC(C)(C)[C@@H]1CC=C(C)C[C@@H]21 [JWH-133, reference compound] | – | – | – | – | – | – | – | 4 µM | – | – | – | – | – | – | – | – |
| O=C1N(CC2CC2)C(=NS(=O)(=O)c2ccccc2)CN1C12CC3CC(CC(C3)C1)C2 [Compound 12b, N-[1-Adamant-1-yl-3-cyclopropylmethyl-2-oxoimidazolidin-4-ylidene]benzenesulfonamide] | > 10 µM | – | did not alter the level of cAMP | – | 198 to 198.5 °C | 0.26 ± 0.03 µM | – | – | 29.5% | did not antagonize the agonist challenge | 2.3 µM | 84.5% | – | – | – | – |
| CC(C)(C)N1CC(=NS(=O)(=O)c2cccc3ccccc23)N(CC2CC2)C1=O [Compound 10g, N-[1-tert-Butyl-3-cyclopropylmethyl-2-oxoimidazolidin-4-ylidene]naphthalene-1-sulfonamide] | – | 24.9% | typical agonist behavior | – | – | – | – | – | – | – | – | – | > 10 µM | 0.072 µM | 0.06 ± 0.01 µM | 95.7% |
| CC(C)(C)N1CC(=NS(=O)(=O)c2ccccc2)N(CC2CC2)C1=O [Compound 10b, N-[1-tert-Butyl-3-cyclopropylmethyl-2-oxoimidazolidin-4-ylidene]benzenesulfonamide] | > 10 µM | 10.5% | typical agonist behavior | 1.26 µM | 114.5 to 115 °C | 1.67 ± 0.16 µM | – | – | – | – | – | 73% | – | – | – | – |
| COCCN1C(=O)N(C(C)(C)C)CC1=NS(=O)(=O)c1c(C)cc(C)cc1C [Compound 11f, N-[1-tert-Butyl-3-(2-methoxyethyl)-2-oxoimidazolidin-4-ylidene]-2,4,6-trimethylbenzene-1-sulfonamide] | > 10 µM | 55.7% | – | – | 141 to 143.5 °C | 3.45 ± 0.95 µM | 64.8% | – | – | – | – | – | – | – | – | – |
| CS(=O)(=O)N=C1CN(C23CC4CC(CC(C4)C2)C3)C(=O)N1CC1CC1 [Compound 12a, N-[1-Adamant-1-yl-3-cyclopropylmethyl-2-oxoimidazolidin-4-ylidene]methanesulfonamide] | 0.21 ± 0.004 µM | – | typical agonist behavior | 2.14 µM | 199.5 to 200 °C | 0.28 ± 0.05 µM | – | – | 76.5% | – | – | 76.5% | – | – | – | – |
| O=C1N(CC2CC2)C(=NS(=O)(=O)c2cccc(Br)c2)CN1C12CC3CC(CC(C3)C1)C2 [Compound 12e, N-[1-Adamant-1-yl-3-cyclopropylmethyl-2-oxoimidazolidin-4-ylidene]-3-bromo-1-benzenesulfonamide] | > 10 µM | 5.07% | did not alter the level of cAMP | – | 138 to 138.5 °C | 0.16 ± 0.03 µM | 71.4% | – | – | fully antagonize | – | – | – | – | – | – |
| CC(C)(C)N1CC(=NS(C)(=O)=O)N(CC2CC2)C1=O [Compound 10a, N-[1-tert-Butyl-3-cyclopropylmethyl-2-oxoimidazolidin-4-ylidene]methanesulfonamide] | > 10 µM | 16.3% | – | – | 83.5 to 84 °C | > 10 µM | 13.4% | – | – | – | – | – | – | – | – | – |
| COCCN1C(=O)N(C(C)(C)C)CC1=NS(=O)(=O)c1cccc(Br)c1 [Compound 11e, 3-Bromo-N-[1-tert-butyl-3-(2-methoxyethyl)-2-oxoimidazolidin-4-ylidene]benzenesulfonamide] | > 10 µM | 10% | – | – | 104 to 105 °C | > 10 µM | 41.1% | – | – | – | – | – | – | – | – | – |
| Cc1ccc(S(=O)(=O)N=C2CN(C34CC5CC(CC(C5)C3)C4)C(=O)N2CC2CC2)cc1 [Compound 12c, N-[1-Adamant-1-yl-3-cyclopropylmethyl-2-oxoimidazolidin-4-ylidene]-4-methyl-1-benzenesulfonamide] | > 10 µM | 34.6% | – | – | 188.5 to 189 °C | > 10 µM | 20.6% | – | – | – | – | – | – | – | – | – |
| CC(C)(C)N1CC(=NS(=O)(=O)c2ccc(Br)cc2)N(CC2CC2)C1=O [Compound 10d, 4-Bromo-N-[1-tert-Butyl-3-cyclopropylmethyl-2-oxoimidazolidin-4-ylidene]benzenesulfonamide] | > 10 µM | 22.2% | – | – | 98 to 98.5 °C | 0.83 ± 0.25 µM | 77.2% | – | – | – | – | – | – | – | – | – |

Reference: paper PMC9738591, “N-[1,3-Dialkyl(aryl)-2-oxoimidazolidin-4-ylidene]-aryl(alkyl)sulphonamides as Novel Selective Human Cannabinoid Type 2 Receptor (hCB2R) Ligands; Insights into the Mechanism of Receptor Activation/Deactivation” (Molecules, 2022)
